Laboratory results from paper PMC5218480 (PLoS ONE, 2017).

Test system: MV-4-11 cells
Experiment: Gene expression microarray analysis (Affymetrix PrimeView) and GSEA
Type: cell-based, human
Parameters: RFU PODN (11730768_x_at) / Fold change /veh PODN (11730768_x_at) / RFU LINC00158 (11744669_a_at) / Fold change /veh LINC00158 (11744669_a_at) / RFU DUSP10 (11751237_a_at) / Fold change /veh DUSP10 (11751237_a_at) / RFU ID3 (11757404_x_at) / Fold change /veh ID3 (11757404_x_at) / RFU PLEKHG5 (11737974_s_at) / Fold change /veh PLEKHG5 (11737974_s_at) / RFU LRRC4B (11730491_at) / Fold change /veh LRRC4B (11730491_at) / RFU GIMAP4 (11747438_a_at) / Fold change /veh GIMAP4 (11747438_a_at) / RFU KRT8 (11758183_x_at) / Fold change /veh KRT8 (11758183_x_at) / RFU CNN1 (11734310_a_at) / Fold change /veh CNN1 (11734310_a_at) / RFU VPS37D (11726825_at) / Fold change /veh VPS37D (11726825_at) / RFU C10orf10 (11716522_x_at) / Fold change /veh C10orf10 (11716522_x_at) / RFU KIR2DL2 /// KIR2DL4 /// KIR2DL5A /// KIR2DL5B /// KIR2DS1 /// KIR2DS2 /// KIR2DS3 /// KIR2DS4 /// KIR3DL3 /// KIR3DL3 /// KIR3DS1 (11738374_at) / Fold change /veh KIR2DL2 /// KIR2DL4 /// KIR2DL5A /// KIR2DL5B /// KIR2DS1 /// KIR2DS2 /// KIR2DS3 /// KIR2DS4 /// KIR3DL3 /// KIR3DL3 /// KIR3DS1 (11738374_at) / RFU C1QL1 (11718748_at) / Fold change /veh C1QL1 (11718748_at) / RFU TMPRSS4 (11747572_a_at) / Fold change /veh TMPRSS4 (11747572_a_at) / RFU HAMP (11756126_x_at) / Fold change /veh HAMP (11756126_x_at) / RFU RNFT2 (11725882_a_at) / Fold change /veh RNFT2 (11725882_a_at) / RFU NR4A2 (11747474_a_at) / Fold change /veh NR4A2 (11747474_a_at) / RFU ABCC12 (11746883_a_at) / Fold change /veh ABCC12 (11746883_a_at) / RFU TMEM136 (11760407_x_at) / Fold change /veh TMEM136 (11760407_x_at) / RFU CLDN22 /// WWC2 (11732394_at) / Fold change /veh CLDN22 /// WWC2 (11732394_at) / RFU HLA-DPB1 (11760878_x_at) / Fold change /veh HLA-DPB1 (11760878_x_at) / RFU SPINT1 (11716480_a_at) / Fold change /veh SPINT1 (11716480_a_at) / RFU GAP43 (11754022_s_at) / Fold change /veh GAP43 (11754022_s_at) / RFU A4GNT (11735810_at) / Fold change /veh A4GNT (11735810_at) / RFU PRB3 (11715151_x_at) / Fold change /veh PRB3 (11715151_x_at) / RFU TUBB4B (11761932_at) / Fold change /veh TUBB4B (11761932_at) / RFU CAPN14 (11732068_a_at) / Fold change /veh CAPN14 (11732068_a_at) / RFU TMCC2 (11721928_a_at) / Fold change /veh TMCC2 (11721928_a_at) / RFU IRGQ (11745062_a_at) / Fold change /veh IRGQ (11745062_a_at) / RFU FAM174B (11720279_a_at) / Fold change /veh FAM174B (11720279_a_at) / RFU TMPRSS4 (11748680_a_at) / Fold change /veh TMPRSS4 (11748680_a_at) / RFU FAM212B (11763350_a_at) / Fold change /veh FAM212B (11763350_a_at) / RFU PLEKHG5 (11743358_a_at) / Fold change /veh PLEKHG5 (11743358_a_at) / RFU ZSCAN30 (11745921_a_at) / Fold change /veh ZSCAN30 (11745921_a_at) / RFU CMKLR1 (11741424_a_at) / Fold change /veh CMKLR1 (11741424_a_at) / RFU LOC101060620 /// MAPK8IP1 (11723275_at) / Fold change /veh LOC101060620 /// MAPK8IP1 (11723275_at) / RFU SPTSSB (11747773_x_at) / Fold change /veh SPTSSB (11747773_x_at) / RFU PRSS12 (11739890_at) / Fold change /veh PRSS12 (11739890_at) / RFU BIN1 (11741810_x_at) / Fold change /veh BIN1 (11741810_x_at) / RFU WNT11 (11732464_a_at) / Fold change /veh WNT11 (11732464_a_at) / RFU C10orf10 (11716521_a_at) / Fold change /veh C10orf10 (11716521_a_at) / RFU C5orf56 (11738089_at) / Fold change /veh C5orf56 (11738089_at) / RFU CYB561 (11721691_x_at) / Fold change /veh CYB561 (11721691_x_at) / RFU ANKRD19P (11752326_a_at) / Fold change /veh ANKRD19P (11752326_a_at) / RFU OR2T12 /// OR2T33 /// OR2T8 (11738714_s_at) / Fold change /veh OR2T12 /// OR2T33 /// OR2T8 (11738714_s_at) / RFU VCAN (11748164_a_at) / Fold change /veh VCAN (11748164_a_at) / RFU JSRP1 (11732532_at) / Fold change /veh JSRP1 (11732532_at) / RFU KRTAP10-11 (11738290_x_at) / Fold change /veh KRTAP10-11 (11738290_x_at) / RFU MYO3A (11730013_a_at) / Fold change /veh MYO3A (11730013_a_at) / RFU EBF3 (11725865_a_at) / Fold change /veh EBF3 (11725865_a_at) / RFU CAMK2N1 (11719241_x_at) / Fold change /veh CAMK2N1 (11719241_x_at) / RFU C5orf56 (11738088_a_at) / Fold change /veh C5orf56 (11738088_a_at) / RFU OLFML3 (11715873_a_at) / Fold change /veh OLFML3 (11715873_a_at) / RFU LOC100653217 /// NTM (11731650_a_at) / Fold change /veh LOC100653217 /// NTM (11731650_a_at) / RFU MAPK11 (11762145_a_at) / Fold change /veh MAPK11 (11762145_a_at) / RFU FIZ1 (11724087_x_at) / Fold change /veh FIZ1 (11724087_x_at) / RFU OASL (11726364_x_at) / Fold change /veh OASL (11726364_x_at) / RFU SOX15 (11748057_x_at) / Fold change /veh SOX15 (11748057_x_at) / RFU CD79A (11719716_a_at) / Fold change /veh CD79A (11719716_a_at) / RFU HIST1H1D (11736915_at) / Fold change /veh HIST1H1D (11736915_at) / RFU CASKIN2 (11723855_a_at) / Fold change /veh CASKIN2 (11723855_a_at) / RFU LOC730098 (11760151_x_at) / Fold change /veh LOC730098 (11760151_x_at) / RFU OR4N2 (11742367_at) / Fold change /veh OR4N2 (11742367_at) / RFU PRRT2 (11749266_a_at) / Fold change /veh PRRT2 (11749266_a_at) / RFU SNX32 (11753110_a_at) / Fold change /veh SNX32 (11753110_a_at) / RFU CDHR5 (11726645_a_at) / Fold change /veh CDHR5 (11726645_a_at) / RFU RCAN1 (11760418_a_at) / Fold change /veh RCAN1 (11760418_a_at) / RFU FAM167A (11723789_a_at) / Fold change /veh FAM167A (11723789_a_at) / RFU FAM26E (11764081_at) / Fold change /veh FAM26E (11764081_at) / RFU ISYNA1 (11749810_s_at) / Fold change /veh ISYNA1 (11749810_s_at) / RFU ACY1 (11761880_at) / Fold change /veh ACY1 (11761880_at) / RFU 11764098_at / Fold change /veh 11764098_at / RFU SAMD14 (11745864_x_at) / Fold change /veh SAMD14 (11745864_x_at) / RFU NPB (11741838_a_at) / Fold change /veh NPB (11741838_a_at) / RFU TMPRSS6 (11731388_a_at) / Fold change /veh TMPRSS6 (11731388_a_at) / RFU KRTAP10-2 (11738614_at) / Fold change /veh KRTAP10-2 (11738614_at) / RFU ARHGAP8 /// PRR5-ARHGAP8 (11727945_x_at) / Fold change /veh ARHGAP8 /// PRR5-ARHGAP8 (11727945_x_at) / RFU KRTAP5-7 /// NADSYN1 (11734609_at) / Fold change /veh KRTAP5-7 /// NADSYN1 (11734609_at) / RFU RASL12 (11751679_a_at) / Fold change /veh RASL12 (11751679_a_at) / RFU CDKN2B (11736163_a_at) / Fold change /veh CDKN2B (11736163_a_at) / RFU PRF1 (11729649_at) / Fold change /veh PRF1 (11729649_at) / RFU, ZNF638 /// ZNF638-IT1 / Fold change vs veh, ZNF638 /// ZNF638-IT1 / RFU, PANK3 / Fold change vs veh, PANK3 / RFU, SH3YL1 / Fold change vs veh, SH3YL1 / RFU, ZEB2 / Fold change vs veh, ZEB2 / RFU, NRIP1 / Fold change vs veh, NRIP1 / RFU, PTTG1IP / Fold change vs veh, PTTG1IP / RFU, CAPN2 / Fold change vs veh, CAPN2 / RFU, MED14 / Fold change vs veh, MED14 / RFU, SNORA58 / Fold change vs veh, SNORA58 / RFU, C1orf63 / Fold change vs veh, C1orf63 / RFU, LRRFIP1 / Fold change vs veh, LRRFIP1 / RFU, NDUFAF7 / Fold change vs veh, NDUFAF7 / RFU, SLC12A2 / Fold change vs veh, SLC12A2 / RFU, IBTK / Fold change vs veh, IBTK / RFU, ESF1 / Fold change vs veh, ESF1 / Fold change vs veh, TMEM50B / RFU, TAOK1 / Fold change vs veh, TAOK1 / RFU, ACBD3 / Fold change vs veh, ACBD3 / RFU, TMA16 / Fold change vs veh, TMA16 / RFU, RWDD3 / Fold change vs veh, RWDD3 / RFU, BCAT1 / Fold change vs veh, BCAT1 / RFU, EDEM3 / Fold change vs veh, EDEM3 / RFU, TMEM33 / Fold change vs veh, TMEM33 / RFU, WDR75 / Fold change vs veh, WDR75 / RFU, AHCTF1 / Fold change vs veh, AHCTF1 / RFU, TFRC / Fold change vs veh, TFRC / RFU, ZDHHC17 / Fold change vs veh, ZDHHC17 / RFU, NOM1 / Fold change vs veh, NOM1 / RFU, ARL8B / Fold change vs veh, ARL8B / RFU, ZBTB11 / Fold change vs veh, ZBTB11 / RFU, TAMM41 / Fold change vs veh, TAMM41 / RFU, KIAA1704 /// LOC100996395 / Fold change vs veh, KIAA1704 /// LOC100996395 / RFU, ING1 / Fold change vs veh, ING1 / RFU, TRMT61B / Fold change vs veh, TRMT61B / RFU, FUBP3 / Fold change vs veh, FUBP3 / RFU, TP53 / Fold change vs veh, TP53 / RFU, TNKS2 / Fold change vs veh, TNKS2 / RFU, ZFP14 / Fold change vs veh, ZFP14 / RFU, ACTR2 / Fold change vs veh, ACTR2 / RFU, PPP3R1 / Fold change vs veh, PPP3R1 / RFU, PIK3R1 / Fold change vs veh, PIK3R1 / RFU, HNRNPA1 / Fold change vs veh, HNRNPA1 / RFU, RNF170 / Fold change vs veh, RNF170 / RFU, ZNF28 / Fold change vs veh, ZNF28 / RFU, RNGTT / Fold change vs veh, RNGTT / RFU, OGT / Fold change vs veh, OGT / RFU, BRD1 / Fold change vs veh, BRD1 / RFU, MARS / Fold change vs veh, MARS / RFU, ZNF655 / Fold change vs veh, ZNF655 / RFU, FAHD1 / Fold change vs veh, FAHD1 / RFU, BDP1 / Fold change vs veh, BDP1 / RFU, LRRCC1 / Fold change vs veh, LRRCC1 / RFU, ARID1A / Fold change vs veh, ARID1A / RFU, ZNF146 / Fold change vs veh, ZNF146 / RFU, ZNF330 / Fold change vs veh, ZNF330 / RFU, GPN3 / Fold change vs veh, GPN3 / RFU, C9orf123 / Fold change vs veh, C9orf123 / RFU, N4BP2L2 / Fold change vs veh, N4BP2L2 / RFU, ARFIP1 / Fold change vs veh, ARFIP1 / RFU, FAM179B / Fold change vs veh, FAM179B / RFU, BCL10 / Fold change vs veh, BCL10 / RFU, UHRF1BP1L / Fold change vs veh, UHRF1BP1L / RFU, BET1 / Fold change vs veh, BET1 / RFU, CNOT2 / Fold change vs veh, CNOT2 / RFU, ZNF268 / Fold change vs veh, ZNF268 / Fold change vs veh, ZNF507 / RFU, DGCR2 / Fold change vs veh, DGCR2 / RFU, WDSUB1 / Fold change vs veh, WDSUB1 / Fold change vs veh, HSP90B1 /// MIR3652 / RFU, ADSS / Fold change vs veh, ADSS / RFU, GK / Fold change vs veh, GK / RFU, ZNF148 / Fold change vs veh, ZNF148 / RFU, TAF9 / Fold change vs veh, TAF9 / RFU, SLC1A5 / Fold change vs veh, SLC1A5 / RFU, SLMO2 / Fold change vs veh, SLMO2 / RFU, ABCC4 / Fold change vs veh, ABCC4 / RFU, LOC101060439 /// RAP1B / Fold change vs veh, LOC101060439 /// RAP1B / RFU, RFX7 / Fold change vs veh, RFX7 / RFU, GTPBP10 / Fold change vs veh, GTPBP10 / RFU, CNEP1R1 / Fold change vs veh, CNEP1R1 / RFU, BIVM-ERCC5 /// ERCC5 / Fold change vs veh, BIVM-ERCC5 /// ERCC5 / RFU, ILF3 / Fold change vs veh, ILF3 / RFU 11762660_at / Fold change /veh 11762660_at / RFU VCAN (11757783_s_at) / Fold change /veh VCAN (11757783_s_at) / RFU DDX43 (11728927_at) / Fold change /veh DDX43 (11728927_at) / RFU KRT8 (11758188_x_at) / Fold change /veh KRT8 (11758188_x_at) / RFU NKD1 (11759106_at) / Fold change /veh NKD1 (11759106_at) / RFU SRD5A1 (11742802_a_at) / Fold change /veh SRD5A1 (11742802_a_at) / RFU TPSAB1 /// TPSB2 (11721975_s_at) / Fold change /veh TPSAB1 /// TPSB2 (11721975_s_at) / RFU GSTM3 (11746129_a_at) / Fold change /veh GSTM3 (11746129_a_at) / RFU IL23R (11737362_x_at) / Fold change /veh IL23R (11737362_x_at) / RFU TMEM51 (11727254_a_at) / Fold change /veh TMEM51 (11727254_a_at) / RFU PIWIL2 (11732686_x_at) / Fold change /veh PIWIL2 (11732686_x_at) / RFU ORM1 (11744905_x_at) / Fold change /veh ORM1 (11744905_x_at) / RFU CCDC152 (11743942_at) / Fold change /veh CCDC152 (11743942_at) / RFU ECM1 (11717891_a_at) / Fold change /veh ECM1 (11717891_a_at) / RFU IL23R (11748794_a_at) / Fold change /veh IL23R (11748794_a_at) / RFU TNFAIP8L3 (11732012_x_at) / Fold change /veh TNFAIP8L3 (11732012_x_at) / RFU MBOAT4 (11741988_at) / Fold change /veh MBOAT4 (11741988_at) / RFU 11764193_at / Fold change /veh 11764193_at / RFU TMEM53 (11763286_at) / Fold change /veh TMEM53 (11763286_at) / RFU MAGEB2 (11727129_at) / Fold change /veh MAGEB2 (11727129_at) / RFU TMEM200A (11744735_a_at) / Fold change /veh TMEM200A (11744735_a_at) / RFU CCDC152 (11751479_a_at) / Fold change /veh CCDC152 (11751479_a_at) / RFU FAM211A (11726209_a_at) / Fold change /veh FAM211A (11726209_a_at) / RFU RGS16 (11746705_a_at) / Fold change /veh RGS16 (11746705_a_at) / RFU VCAN (11755009_s_at) / Fold change /veh VCAN (11755009_s_at) / RFU RHOB (11743442_s_at) / Fold change /veh RHOB (11743442_s_at) / RFU RGS16 (11720943_a_at) / Fold change /veh RGS16 (11720943_a_at) / RFU RGS16 (11720944_at) / Fold change /veh RGS16 (11720944_at) / RFU, VPS4B / Fold change vs veh, VPS4B / RFU, CREB1 / Fold change vs veh, CREB1 / RFU, DNAJC13 / Fold change vs veh, DNAJC13 / RFU, GNAQ / Fold change vs veh, GNAQ / RFU, CDK5R1 / Fold change vs veh, CDK5R1 / RFU, ZRANB3 / Fold change vs veh, ZRANB3 / RFU, CUL4A / Fold change vs veh, CUL4A / RFU, CCNY / Fold change vs veh, CCNY / RFU, UFL1 / Fold change vs veh, UFL1 / RFU, COG3 / Fold change vs veh, COG3 / RFU, DIAPH2 / Fold change vs veh, DIAPH2 / RFU, SKA2 / Fold change vs veh, SKA2 / RFU, AFF3 / Fold change vs veh, AFF3 / RFU, LMF1 / Fold change vs veh, LMF1 / RFU, IPO11 / Fold change vs veh, IPO11 / RFU, DFFB / Fold change vs veh, DFFB / RFU, FOXP1 / Fold change vs veh, FOXP1 / RFU, CARD8 / Fold change vs veh, CARD8 / RFU, STRN3 / Fold change vs veh, STRN3 / RFU, ADK / Fold change vs veh, ADK / RFU, RASSF2 / Fold change vs veh, RASSF2 / RFU, WIPF1 / Fold change vs veh, WIPF1 / RFU, LARP1B / Fold change vs veh, LARP1B / RFU, RASA1 / Fold change vs veh, RASA1 / RFU, RB1 / Fold change vs veh, RB1 / RFU, PPFIA1 / Fold change vs veh, PPFIA1 / RFU, MAT2A / Fold change vs veh, MAT2A / RFU, CCT5 / Fold change vs veh, CCT5 / RFU, WDR92 / Fold change vs veh, WDR92 / RFU, CUX1 / Fold change vs veh, CUX1 / RFU, TTC7A / Fold change vs veh, TTC7A / RFU, TMEM135 / Fold change vs veh, TMEM135 / RFU, DEPTOR / Fold change vs veh, DEPTOR / RFU, CPM / Fold change vs veh, CPM / RFU, DNAJB6 / Fold change vs veh, DNAJB6 / RFU, CACNA2D3 / Fold change vs veh, CACNA2D3 / RFU, DTX4 / Fold change vs veh, DTX4 / RFU, TFCP2 / Fold change vs veh, TFCP2 / RFU, GMCL1 /// GMCL1P1 / Fold change vs veh, GMCL1 /// GMCL1P1 / RFU, AEBP2 / Fold change vs veh, AEBP2 / RFU, SNHG1 /// SNORD22 /// SNORD25 /// SNORD26 /// SNORD27 /// SNORD28 /// SNORD29 /// SNORD31 / Fold change vs veh, SNHG1 /// SNORD22 /// SNORD25 /// SNORD26 /// SNORD27 /// SNORD28 /// SNORD29 /// SNORD31 / Fold change (Aza/veh), C12orf56 (ProbeSet 11735607_a_at) / Fold change (ACY-1035/veh), C12orf56 (ProbeSet 11735607_a_at) / Fold change (Aza/veh), FGFR1OP (ProbeSet 11751329_s_at) / Fold change (ACY-1035/veh), FGFR1OP (ProbeSet 11751329_s_at) / Fold change (Aza/veh), VPS36 (ProbeSet 11739960_a_at) / Fold change (ACY-1035/veh), VPS36 (ProbeSet 11739960_a_at) / RFU SYPL1 (11715823_x_at) / Fold change /veh SYPL1 (11715823_x_at) / RFU IGFBP7 (11715501_s_at) / Fold change /veh IGFBP7 (11715501_s_at) / RFU REEP3 (11722064_at) / Fold change /veh REEP3 (11722064_at) / RFU IGLL1 (11728026_x_at) / Fold change /veh IGLL1 (11728026_x_at): dose or concentration left out as unconfirmed
Details: MV-4-11 cells, 48 hours

## Nc1ncn([C@@H]2O[C@H](CO)[C@@H](O)[C@H]2O)c(=O)n1 [azacitidine]
  RFU VCAN (11755009_s_at): 15.18 RFU
